Experimental data from ChEMBL document CHEMBL1201862, “PubChem BioAssay data set” (2004).
Activity calls are given as the source filed them.

Experiments:
[1] = target: Nucleotide-binding oligomerization domain-containing protein 1 (Homo sapiens, UniProt Q9Y239); test: SAR analysis of compounds that inhibit NOD1 - Set 3. [Related pubchem assays (depositor defined):AID1566, AID1575, AID1578, AID1849, AID1852, AID2333, AID2335, AID2466]; assay type: functional
[2] = target: Tumor necrosis factor (Homo sapiens, UniProt P01375); test: analog potency on TNFa NF-kB signaling – cell-based, set 3, SAR follow-up (AID 2801); assay type: functional
[3] = target: Nucleotide-binding oligomerization domain-containing protein 2 (Homo sapiens, UniProt Q9HC29); test: inhibition of MDP-driven NOD2 NF-kB reporter – cell-based, set 3, SAR follow-up (AID 2799); assay type: functional
[4] = system: HEK293; test: SAR analysis of compounds that are cytotoxic to HEK293 - Set 3. [Related pubchem assays (depositor defined):AID1575, AID1578, AID1848, AID1849, AID2001, AID2333, AID2334, AID2335, AID2337, AID2469]; assay type: functional, cell-based; conditions: Homo sapiens

Measured: IC50

Nucleotide-binding oligomerization domain-containing protein 2, sequence (Q9HC29 whole entry, the tested form may be a part): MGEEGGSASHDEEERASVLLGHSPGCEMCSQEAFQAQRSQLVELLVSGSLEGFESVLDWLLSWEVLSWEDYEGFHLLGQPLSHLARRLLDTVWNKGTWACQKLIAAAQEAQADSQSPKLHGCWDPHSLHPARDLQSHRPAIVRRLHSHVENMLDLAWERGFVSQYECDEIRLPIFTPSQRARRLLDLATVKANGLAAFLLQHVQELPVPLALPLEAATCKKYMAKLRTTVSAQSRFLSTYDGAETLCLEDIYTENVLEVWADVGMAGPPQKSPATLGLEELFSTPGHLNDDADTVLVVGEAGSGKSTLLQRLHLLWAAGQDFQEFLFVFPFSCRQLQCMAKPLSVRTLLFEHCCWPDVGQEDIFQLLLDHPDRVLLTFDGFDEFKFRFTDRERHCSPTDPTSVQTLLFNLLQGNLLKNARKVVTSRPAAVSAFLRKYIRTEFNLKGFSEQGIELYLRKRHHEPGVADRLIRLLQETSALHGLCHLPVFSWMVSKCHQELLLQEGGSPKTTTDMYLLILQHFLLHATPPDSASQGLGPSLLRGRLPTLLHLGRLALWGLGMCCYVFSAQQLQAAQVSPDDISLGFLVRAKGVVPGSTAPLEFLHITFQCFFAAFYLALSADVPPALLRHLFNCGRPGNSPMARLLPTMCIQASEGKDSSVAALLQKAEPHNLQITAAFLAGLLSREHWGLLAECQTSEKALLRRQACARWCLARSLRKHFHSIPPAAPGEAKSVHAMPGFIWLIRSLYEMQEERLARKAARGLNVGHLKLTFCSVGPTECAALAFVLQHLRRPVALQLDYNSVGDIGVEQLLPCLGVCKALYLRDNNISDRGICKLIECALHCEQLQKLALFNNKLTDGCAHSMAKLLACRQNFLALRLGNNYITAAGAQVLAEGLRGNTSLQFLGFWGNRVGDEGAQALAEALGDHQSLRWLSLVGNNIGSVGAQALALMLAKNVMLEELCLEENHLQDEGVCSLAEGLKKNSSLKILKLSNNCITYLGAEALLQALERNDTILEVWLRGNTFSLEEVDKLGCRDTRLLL
Tumor necrosis factor, sequence (P01375 whole entry, the tested form may be a part): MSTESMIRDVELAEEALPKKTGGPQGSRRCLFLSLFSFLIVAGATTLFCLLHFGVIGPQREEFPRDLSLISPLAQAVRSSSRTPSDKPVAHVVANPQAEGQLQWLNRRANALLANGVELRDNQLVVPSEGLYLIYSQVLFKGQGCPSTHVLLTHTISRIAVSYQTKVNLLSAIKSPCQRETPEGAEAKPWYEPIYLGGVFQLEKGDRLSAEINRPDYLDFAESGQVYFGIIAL
Nucleotide-binding oligomerization domain-containing protein 1, sequence (Q9Y239 whole entry, the tested form may be a part): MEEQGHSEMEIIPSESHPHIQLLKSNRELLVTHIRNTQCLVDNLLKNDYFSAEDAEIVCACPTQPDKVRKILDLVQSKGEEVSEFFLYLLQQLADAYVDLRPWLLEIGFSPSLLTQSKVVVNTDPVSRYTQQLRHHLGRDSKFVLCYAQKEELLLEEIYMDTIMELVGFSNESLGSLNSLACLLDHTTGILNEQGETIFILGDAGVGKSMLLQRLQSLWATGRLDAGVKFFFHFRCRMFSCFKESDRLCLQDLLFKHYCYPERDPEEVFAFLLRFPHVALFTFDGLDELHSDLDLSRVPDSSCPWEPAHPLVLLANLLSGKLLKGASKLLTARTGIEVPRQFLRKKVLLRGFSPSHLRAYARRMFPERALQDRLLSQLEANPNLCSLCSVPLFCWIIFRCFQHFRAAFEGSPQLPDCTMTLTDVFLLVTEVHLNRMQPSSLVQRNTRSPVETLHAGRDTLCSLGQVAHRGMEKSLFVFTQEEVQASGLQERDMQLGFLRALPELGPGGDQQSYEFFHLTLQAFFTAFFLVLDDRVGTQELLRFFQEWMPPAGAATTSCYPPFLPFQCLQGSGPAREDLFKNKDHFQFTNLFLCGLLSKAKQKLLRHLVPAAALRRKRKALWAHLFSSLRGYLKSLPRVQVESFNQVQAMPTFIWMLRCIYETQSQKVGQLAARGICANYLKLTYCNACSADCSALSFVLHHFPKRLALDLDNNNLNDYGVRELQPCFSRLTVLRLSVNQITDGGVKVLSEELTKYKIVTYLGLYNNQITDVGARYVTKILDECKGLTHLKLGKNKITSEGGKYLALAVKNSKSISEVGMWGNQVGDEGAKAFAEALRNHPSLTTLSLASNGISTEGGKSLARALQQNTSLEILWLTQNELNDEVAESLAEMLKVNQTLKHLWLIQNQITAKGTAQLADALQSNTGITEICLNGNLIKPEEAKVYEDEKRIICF

N#Cc1ccc(S(=O)(=O)n2c(N)nc3ccccc32)cc1
inactive: [1] > 20 µM | [2] > 20 µM | [3] > 20 µM | [4] > 20 µM
